The values that follow come from patent US11031562B2, “Metal complexes” (Merck Patent GmbH, priority 2015, dated 2021).

Common to all, as to format: physicochemical
Data set [1] in a line: Photoluminescence in solution (PL-max., PL quantum efficiency). The following applies: solvent toluene; room temperature, degassed solution.
Data set [2] can be described thus: Oxidation and reduction potentials by CV (HOMO, LUMO). The settings on record: in eV (unit assumed); for HOMO: Ox. in DCM; for LUMO: Red. in THF.
Data set [3] can be described thus: Thermal stability: thermal storage at 360° C. for 7 days, checked by 1H NMR.
Data set [4] in a line: Photostability in anhydrous C6D6 solution under irradiation with light of about 455 nm, checked by 1H NMR. The settings on record: irradiation with light of wavelength about 455 nm.

On to `c1ccc(-c2cc(-c3ccccc3)cc(-c3cccc(-c4cc[c]5c(c4)-c4cccc[n+]4[Ir-3]546([c]5ccc(-c7cccc(-c8cc(-c9ccccc9)cc(-c9ccccc9)c8)c7)cc5-c5cccc[n+]54)[c]4ccc(-c5cccc(-c7cc(-c8ccccc8)cc(-c8ccccc8)c7)c5)cc4-c4cccc[n+]46)c3)c2)cc1` [Ir1, reference compound], for which, in data set [1], the PL-max. came out at 513 and the PLQE was 0.97. In data set [2], this compound registered an HOMO of −5.09 and an LUMO of −1.99.
Consider `Cc1cc2[n+](cc1-c1ccccc1)[Ir-3]13([c]4ccccc4-c4cccc[n+]41)([c]1ccccc1-c1cccc[n+]13)[c]1ccccc1-2` [Ir2, reference compound], for which, in data set [3], the Therm. stab. entry is recorded as “decomposition”. In data set [1], the PL-max. was found to be 516 and the PLQE was determined as 0.97. Also, the Photo. stab. result in data set [4] is “decomposition”. In data set [2], this compound returned an HOMO of −5.05 and an LUMO of −1.71.
Take `O=C1Oc2cc3cc(c2)OC(=O)c2ccc4[c](c2)[Ir-3]25([c]6cc1ccc6-c1cccc[n+]12)([c]1cc(ccc1-c1cccc[n+]15)C(=O)O3)[n+]1ccccc1-4` [Ir(L200)]: the Therm. stab. entry in data set [3] is “no decomp”. In data set [1], this compound showed a PL-max. of 552 and a PLQE of 0.94. For the same compound, in data set [4], the Photo. stab. result is on record as “no decomp”. Besides, in data set [2], the HOMO is −5.66 and the LUMO is reported as −2.64.
Take `CN1C(=O)c2ccc3[c](c2)[Ir-3]245([c]6cc(ccc6-c6cccc[n+]62)C(=O)N(C)c2cc1cc(c2)N(C)C(=O)c1ccc([c]4c1)-c1cccc[n+]15)[n+]1ccccc1-3` [Ir(L300)]: the Therm. stab. result in data set [3] is “no decomp”. In data set [1], this compound registered a PL-max. of 539 and a PLQE of 0.95. Also, the Photo. stab. entry in data set [4] is listed as “no decomp”. In data set [2], this compound returned an HOMO of −5.34 and an LUMO of −2.29.
